Measurements as given in ChEMBL document CHEMBL4138146, “A Schmidt rearrangement-mediated synthesis of novel tetrahydro-benzo[1,4]diazepin-5-ones as potential anticancer and antiprotozoal agents” (Eur J Med Chem, 2017).

Legend:
Assay type in all cases: functional
[1] = system: A549; test: Growth inhibition of human A549/ATCC cells assessed as cell growth at 10^-8 M incubated for 48 hrs by sulforhodamine B assay relative to control; details: A549, 48 h, read-out: Activity
[2] = system: HCT-116; test: Growth inhibition of human HCT116 cells assessed as cell growth at 10^-8 M incubated for 48 hrs by sulforhodamine B assay relative to control; details: HCT-116, 48 h, read-out: Activity
[3] = system: SNB-19; test: Growth inhibition of human SNB19 cells assessed as cell growth at 10^-8 M incubated for 48 hrs by sulforhodamine B assay relative to control; details: SNB-19, 48 h, read-out: Activity
[4] = system: SK-MEL-5; test: Growth inhibition of human SK-MEL-5 cells assessed as cell growth at 10^-8 M incubated for 48 hrs by sulforhodamine B assay relative to control; details: SK-MEL-5, 48 h, read-out: Activity
[5] = system: OVCAR-5; test: Growth inhibition of human OVCAR5 cells assessed as cell growth at 10^-8 M incubated for 48 hrs by sulforhodamine B assay relative to control; details: OVCAR-5, 48 h, read-out: Activity
[6] = system: A498; test: Growth inhibition of human A498 cells assessed as cell growth at 10^-8 M incubated for 48 hrs by sulforhodamine B assay relative to control; details: A498, 48 h, read-out: Activity
[7] = system: RXF 393; test: Growth inhibition of human RXF393 cells assessed as cell growth at 10^-8 M incubated for 48 hrs by sulforhodamine B assay relative to control; details: RXF 393, 48 h, read-out: Activity
[8] = system: PC-3; test: Growth inhibition of human PC3 cells assessed as cell growth at 10^-8 M incubated for 48 hrs by sulforhodamine B assay relative to control; details: PC-3, 48 h, read-out: Activity
[9] = system: A549; test: Growth inhibition of human A549/ATCC cells assessed as cell growth at 10^-7 M incubated for 48 hrs by sulforhodamine B assay relative to control; details: A549, 48 h, read-out: Activity
[10] = system: M14; test: Growth inhibition of human M14 cells assessed as cell growth at 10^-7 M incubated for 48 hrs by sulforhodamine B assay relative to control; details: M14, 48 h, read-out: Activity
[11] = system: OVCAR-8; test: Growth inhibition of human OVCAR8 cells assessed as cell growth at 10^-7 M incubated for 48 hrs by sulforhodamine B assay relative to control; details: OVCAR-8, 48 h, read-out: Activity
[12] = system: RXF 393; test: Growth inhibition of human RXF393 cells assessed as cell growth at 10^-7 M incubated for 48 hrs by sulforhodamine B assay relative to control; details: RXF 393, 48 h, read-out: Activity
[13] = system: TK-10; test: Growth inhibition of human TK10 cells assessed as cell growth at 10^-7 M incubated for 48 hrs by sulforhodamine B assay relative to control; details: TK-10, 48 h, read-out: Activity
[14] = system: Hs-578T; test: Growth inhibition of human Hs 578T cells assessed as cell growth at 10^-7 M incubated for 48 hrs by sulforhodamine B assay relative to control; details: read-out: Activity
[15] = system: RPMI-8226; test: Growth inhibition of human RPMI8226 cells assessed as cell growth at 10^-6 M incubated for 48 hrs by sulforhodamine B assay relative to control; details: RPMI-8226, 48 h, read-out: Activity
[16] = system: SR; test: Growth inhibition of human SR cells assessed as cell growth at 10^-6 M incubated for 48 hrs by sulforhodamine B assay relative to control; details: read-out: Activity
[17] = system: A549; test: Growth inhibition of human A549/ATCC cells assessed as cell growth at 10^-6 M incubated for 48 hrs by sulforhodamine B assay relative to control; details: A549, 48 h, read-out: Activity
[18] = system: HOP-92; test: Growth inhibition of human HOP92 cells assessed as cell growth at 10^-6 M incubated for 48 hrs by sulforhodamine B assay relative to control; details: HOP-92, 48 h, read-out: Activity
[19] = system: SW-620; test: Growth inhibition of human SW620 cells assessed as cell growth at 10^-6 M incubated for 48 hrs by sulforhodamine B assay relative to control; details: SW-620, 48 h, read-out: Activity
[20] = system: SNB-19; test: Growth inhibition of human SNB19 cells assessed as cell growth at 10^-6 M incubated for 48 hrs by sulforhodamine B assay relative to control; details: SNB-19, 48 h, read-out: Activity
[21] = system: SK-MEL-28; test: Growth inhibition of human SK-MEL-28 cells assessed as cell growth at 10^-6 M incubated for 48 hrs by sulforhodamine B assay relative to control; details: SK-MEL-28, 48 h, read-out: Activity
[22] = system: ACHN; test: Growth inhibition of human ACHN cells assessed as cell growth at 10^-6 M incubated for 48 hrs by sulforhodamine B assay relative to control; details: read-out: Activity
[23] = system: MCF7; test: Growth inhibition of human MCF7 cells assessed as cell growth at 10^-6 M incubated for 48 hrs by sulforhodamine B assay relative to control; details: MCF7, 48 h, read-out: Activity
[24] = system: CCRF-CEM; test: Growth inhibition of human CCRF-CEM cells assessed as cell growth at 10^-5 M incubated for 48 hrs by sulforhodamine B assay relative to control; details: read-out: Activity
[25] = system: NCI-H226; test: Growth inhibition of human NCI-H226 cells assessed as cell growth at 10^-5 M incubated for 48 hrs by sulforhodamine B assay relative to control; details: NCI-H226, 48 h, read-out: Activity
[26] = system: LOX IMVI; test: Growth inhibition of human LOXIMVI cells assessed as cell growth at 10^-5 M incubated for 48 hrs by sulforhodamine B assay relative to control; details: read-out: Activity
[27] = system: A498; test: Growth inhibition of human A498 cells assessed as cell growth at 10^-5 M incubated for 48 hrs by sulforhodamine B assay relative to control; details: A498, 48 h, read-out: Activity
[28] = system: ACHN; test: Growth inhibition of human ACHN cells assessed as cell growth at 10^-5 M incubated for 48 hrs by sulforhodamine B assay relative to control; details: read-out: Activity
[29] = system: DU-145; test: Growth inhibition of human DU145 cells assessed as cell growth at 10^-5 M incubated for 48 hrs by sulforhodamine B assay relative to control; details: DU-145, 48 h, read-out: Activity
[30] = system: A549; test: Growth inhibition of human A549/ATCC cells assessed as cell growth at 10^-4 M incubated for 48 hrs by sulforhodamine B assay relative to control; details: A549, 48 h, read-out: Activity
[31] = system: EKVX; test: Growth inhibition of human EKVX cells assessed as cell growth at 10^-4 M incubated for 48 hrs by sulforhodamine B assay relative to control; details: read-out: Activity
[32] = system: NCI-H522; test: Growth inhibition of human NCI-H522 cells assessed as cell growth at 10^-4 M incubated for 48 hrs by sulforhodamine B assay relative to control; details: NCI-H522, 48 h, read-out: Activity
[33] = system: SW-620; test: Growth inhibition of human SW620 cells assessed as cell growth at 10^-4 M incubated for 48 hrs by sulforhodamine B assay relative to control; details: SW-620, 48 h, read-out: Activity
[34] = system: Hs-578T; test: Growth inhibition of human Hs 578T cells assessed as cell growth at 10^-4 M incubated for 48 hrs by sulforhodamine B assay relative to control; details: read-out: Activity
[35] = system: MDA-MB-468; test: Growth inhibition of human MDA-MB-468 cells assessed as cell growth at 10^-4 M incubated for 48 hrs by sulforhodamine B assay relative to control; details: MDA-MB-468, 48 h, read-out: Activity

Compound: CCCCOc1nc2ccccc2cc1C1CNC(=O)c2ccccc2N1 (stereo not given)
- growth at 0.01 µM [1]: 100%
- growth at 0.01 µM [2]: 101%
- growth at 0.01 µM [3]: 96%
- growth at 0.01 µM [4]: 93%
- growth at 0.01 µM [5]: 98%
- growth at 0.01 µM [6]: 82%
- growth at 0.01 µM [7]: 100%
- growth at 0.01 µM [8]: 96%
- growth at 0.1 µM [9]: 100%
- growth at 0.1 µM [10]: 91%
- growth at 0.1 µM [11]: 98%
- growth at 0.1 µM [12]: 86%
- growth at 0.1 µM [13]: 83%
- growth at 0.1 µM [14]: 97%
- growth at 1 µM [15]: 84%
- growth at 1 µM [16]: 55%
- growth at 1 µM [17]: 96%
- growth at 1 µM [18]: 62%
- growth at 1 µM [19]: 66%
- growth at 1 µM [20]: 95%
- growth at 1 µM [21]: 71%
- growth at 1 µM [22]: 91%
- growth at 1 µM [23]: 62%
- growth at 10 µM [24]: 11%
- growth at 10 µM [25]: 7%
- growth at 10 µM [26]: 15%
- growth at 10 µM [27]: -21%
- growth at 10 µM [28]: 22%
- growth at 10 µM [29]: 5%
- growth at 100 µM [30]: -75%
- growth at 100 µM [31]: -3%
- growth at 100 µM [32]: -35%
- growth at 100 µM [33]: -24%
- growth at 100 µM [34]: -25%
- growth at 100 µM [35]: -43%
